Results: ChEMBL document CHEMBL4359851, “Design, synthesis, and biological evaluation of a new class of histone acetyltransferase p300 inhibitors” (Eur J Med Chem, 2019)
Activity calls are given as the source filed them. No cut-off for these calls is given here.

Legend:
[1] = molecular target: T1, Histone acetyltransferase p300 (Homo sapiens, UniProt Q09472); experiment: Inhibition of p300 (unknown origin) using biotinylated histone H3 (1 to 21 residues) as substrate measured after 90 mins in presence of Acetyl CoA by AlphaLISA assay
[2] = Reactivity with dithiothretol assessed as addition product with thiol group measured after 6 hrs by mass spectrometry; format: physicochemical
[3] = Reactivity with glutathione assessed as addition product with thiol group measured at 50 degC by mass spectrometry; format: physicochemical
[4] = system: MCF7; experiment: Antiproliferative activity against HER2-negative human MCF7 cells measured after 6 days of incubation by sulforhodamine B assay; format: functional, cell-based; conditions: MCF7, 144 h
[5] = molecular target: Histone deacetylase 1 (Homo sapiens, UniProt Q13547); experiment: Inhibition of recombinant HDAC1 (unknown origin) measured after 30 mins by fluorescence assay
[6] = system: T47D; experiment: Antiproliferative activity against HER2-negative human T47D cells measured after 6 days of incubation by sulforhodamine B assay; format: functional, cell-based; conditions: 144 h
[7] = molecular target: T1, Histone acetyltransferase p300; experiment: Inhibition of p300 in human U2932 cells assessed as reduction in H3K27 acetylation at 10 uM measured after 4 days in presence of EZH2 inhibitor EPZ6438 by Western blot analysis; format: cell-based
[8] = Reactivity with glutathione assessed as addition product with thiol group measured after 6 hrs by mass spectrometry; format: physicochemical
[9] = molecular target: Histone deacetylase 3 (Homo sapiens, UniProt O15379); experiment: Inhibition of recombinant HDAC3 (unknown origin) measured after 30 mins by fluorescence assay
[10] = molecular target: T2, Histone deacetylase 8 (Homo sapiens, UniProt Q9BY41); experiment: Inhibition of recombinant HDAC8 (unknown origin) measured after 30 mins by fluorescence assay
T2 sequence (Q9BY41 whole entry): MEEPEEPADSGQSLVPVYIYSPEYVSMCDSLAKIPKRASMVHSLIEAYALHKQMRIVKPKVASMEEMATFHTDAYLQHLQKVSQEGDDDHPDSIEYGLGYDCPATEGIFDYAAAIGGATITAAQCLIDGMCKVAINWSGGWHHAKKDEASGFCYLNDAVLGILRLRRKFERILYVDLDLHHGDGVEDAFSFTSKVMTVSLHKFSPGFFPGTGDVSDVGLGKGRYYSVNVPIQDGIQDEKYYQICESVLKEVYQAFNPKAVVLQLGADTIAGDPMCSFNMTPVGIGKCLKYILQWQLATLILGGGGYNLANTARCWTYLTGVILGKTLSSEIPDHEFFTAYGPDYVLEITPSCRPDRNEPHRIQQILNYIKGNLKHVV

[11] = molecular target: Histone deacetylase 2 (Homo sapiens, UniProt Q92769); experiment: Inhibition of recombinant HDAC2 (unknown origin) measured after 30 mins by fluorescence assay
[12] = molecular target: T3, Protein deacetylase HDAC6 (Homo sapiens, UniProt Q9UBN7); experiment: Inhibition of recombinant HDAC6 (unknown origin) measured after 30 mins by fluorescence assay
T3 sequence (Q9UBN7 whole entry): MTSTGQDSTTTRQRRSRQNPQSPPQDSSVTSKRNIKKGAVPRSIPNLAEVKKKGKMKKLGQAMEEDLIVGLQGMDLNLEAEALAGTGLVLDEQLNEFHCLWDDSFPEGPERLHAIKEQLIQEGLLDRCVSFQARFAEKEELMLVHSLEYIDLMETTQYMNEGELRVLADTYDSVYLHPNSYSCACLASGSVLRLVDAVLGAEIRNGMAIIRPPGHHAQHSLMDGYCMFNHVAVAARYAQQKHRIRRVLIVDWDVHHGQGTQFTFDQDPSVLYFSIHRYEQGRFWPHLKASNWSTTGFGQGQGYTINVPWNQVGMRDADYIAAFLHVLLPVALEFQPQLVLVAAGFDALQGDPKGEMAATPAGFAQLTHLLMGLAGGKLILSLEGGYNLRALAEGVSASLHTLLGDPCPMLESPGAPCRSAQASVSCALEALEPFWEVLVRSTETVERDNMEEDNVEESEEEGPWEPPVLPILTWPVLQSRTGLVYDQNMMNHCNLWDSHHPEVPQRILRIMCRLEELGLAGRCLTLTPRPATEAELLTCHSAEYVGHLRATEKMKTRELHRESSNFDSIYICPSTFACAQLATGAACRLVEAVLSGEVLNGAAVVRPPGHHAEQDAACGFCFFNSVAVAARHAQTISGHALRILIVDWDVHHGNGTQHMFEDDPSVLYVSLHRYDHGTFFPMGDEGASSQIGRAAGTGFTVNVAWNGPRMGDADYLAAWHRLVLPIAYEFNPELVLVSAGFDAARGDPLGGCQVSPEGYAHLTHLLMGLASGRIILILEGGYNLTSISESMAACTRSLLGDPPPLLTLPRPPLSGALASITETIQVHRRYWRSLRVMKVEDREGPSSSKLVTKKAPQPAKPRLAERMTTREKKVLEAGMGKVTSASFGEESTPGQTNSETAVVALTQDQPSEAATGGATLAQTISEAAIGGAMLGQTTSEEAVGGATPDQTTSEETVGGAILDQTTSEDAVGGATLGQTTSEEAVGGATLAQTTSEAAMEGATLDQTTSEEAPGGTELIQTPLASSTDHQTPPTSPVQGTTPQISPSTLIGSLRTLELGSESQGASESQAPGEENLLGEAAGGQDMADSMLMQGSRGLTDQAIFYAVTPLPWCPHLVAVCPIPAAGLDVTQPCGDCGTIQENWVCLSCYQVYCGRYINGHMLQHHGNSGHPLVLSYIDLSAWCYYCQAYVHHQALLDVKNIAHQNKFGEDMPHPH

[13] = Reactivity with dithiothretol assessed as addition product with thiol group measured at 50 degC by mass spectrometry; format: physicochemical
[14] = Solubility of compound in ethyl acetate; format: physicochemical
[15] = Solubility of compound in water; format: physicochemical; conditions: buffer
[16] = Reactivity with glutathione assessed as addition product with thiol group measured within 1 hr by mass spectrometry; format: physicochemical
[17] = Reactivity with dithiothretol assessed as addition product with thiol group measured within 1 hr by mass spectrometry; format: physicochemical

T1 sequence (Q09472 whole entry, the tested form may be a part): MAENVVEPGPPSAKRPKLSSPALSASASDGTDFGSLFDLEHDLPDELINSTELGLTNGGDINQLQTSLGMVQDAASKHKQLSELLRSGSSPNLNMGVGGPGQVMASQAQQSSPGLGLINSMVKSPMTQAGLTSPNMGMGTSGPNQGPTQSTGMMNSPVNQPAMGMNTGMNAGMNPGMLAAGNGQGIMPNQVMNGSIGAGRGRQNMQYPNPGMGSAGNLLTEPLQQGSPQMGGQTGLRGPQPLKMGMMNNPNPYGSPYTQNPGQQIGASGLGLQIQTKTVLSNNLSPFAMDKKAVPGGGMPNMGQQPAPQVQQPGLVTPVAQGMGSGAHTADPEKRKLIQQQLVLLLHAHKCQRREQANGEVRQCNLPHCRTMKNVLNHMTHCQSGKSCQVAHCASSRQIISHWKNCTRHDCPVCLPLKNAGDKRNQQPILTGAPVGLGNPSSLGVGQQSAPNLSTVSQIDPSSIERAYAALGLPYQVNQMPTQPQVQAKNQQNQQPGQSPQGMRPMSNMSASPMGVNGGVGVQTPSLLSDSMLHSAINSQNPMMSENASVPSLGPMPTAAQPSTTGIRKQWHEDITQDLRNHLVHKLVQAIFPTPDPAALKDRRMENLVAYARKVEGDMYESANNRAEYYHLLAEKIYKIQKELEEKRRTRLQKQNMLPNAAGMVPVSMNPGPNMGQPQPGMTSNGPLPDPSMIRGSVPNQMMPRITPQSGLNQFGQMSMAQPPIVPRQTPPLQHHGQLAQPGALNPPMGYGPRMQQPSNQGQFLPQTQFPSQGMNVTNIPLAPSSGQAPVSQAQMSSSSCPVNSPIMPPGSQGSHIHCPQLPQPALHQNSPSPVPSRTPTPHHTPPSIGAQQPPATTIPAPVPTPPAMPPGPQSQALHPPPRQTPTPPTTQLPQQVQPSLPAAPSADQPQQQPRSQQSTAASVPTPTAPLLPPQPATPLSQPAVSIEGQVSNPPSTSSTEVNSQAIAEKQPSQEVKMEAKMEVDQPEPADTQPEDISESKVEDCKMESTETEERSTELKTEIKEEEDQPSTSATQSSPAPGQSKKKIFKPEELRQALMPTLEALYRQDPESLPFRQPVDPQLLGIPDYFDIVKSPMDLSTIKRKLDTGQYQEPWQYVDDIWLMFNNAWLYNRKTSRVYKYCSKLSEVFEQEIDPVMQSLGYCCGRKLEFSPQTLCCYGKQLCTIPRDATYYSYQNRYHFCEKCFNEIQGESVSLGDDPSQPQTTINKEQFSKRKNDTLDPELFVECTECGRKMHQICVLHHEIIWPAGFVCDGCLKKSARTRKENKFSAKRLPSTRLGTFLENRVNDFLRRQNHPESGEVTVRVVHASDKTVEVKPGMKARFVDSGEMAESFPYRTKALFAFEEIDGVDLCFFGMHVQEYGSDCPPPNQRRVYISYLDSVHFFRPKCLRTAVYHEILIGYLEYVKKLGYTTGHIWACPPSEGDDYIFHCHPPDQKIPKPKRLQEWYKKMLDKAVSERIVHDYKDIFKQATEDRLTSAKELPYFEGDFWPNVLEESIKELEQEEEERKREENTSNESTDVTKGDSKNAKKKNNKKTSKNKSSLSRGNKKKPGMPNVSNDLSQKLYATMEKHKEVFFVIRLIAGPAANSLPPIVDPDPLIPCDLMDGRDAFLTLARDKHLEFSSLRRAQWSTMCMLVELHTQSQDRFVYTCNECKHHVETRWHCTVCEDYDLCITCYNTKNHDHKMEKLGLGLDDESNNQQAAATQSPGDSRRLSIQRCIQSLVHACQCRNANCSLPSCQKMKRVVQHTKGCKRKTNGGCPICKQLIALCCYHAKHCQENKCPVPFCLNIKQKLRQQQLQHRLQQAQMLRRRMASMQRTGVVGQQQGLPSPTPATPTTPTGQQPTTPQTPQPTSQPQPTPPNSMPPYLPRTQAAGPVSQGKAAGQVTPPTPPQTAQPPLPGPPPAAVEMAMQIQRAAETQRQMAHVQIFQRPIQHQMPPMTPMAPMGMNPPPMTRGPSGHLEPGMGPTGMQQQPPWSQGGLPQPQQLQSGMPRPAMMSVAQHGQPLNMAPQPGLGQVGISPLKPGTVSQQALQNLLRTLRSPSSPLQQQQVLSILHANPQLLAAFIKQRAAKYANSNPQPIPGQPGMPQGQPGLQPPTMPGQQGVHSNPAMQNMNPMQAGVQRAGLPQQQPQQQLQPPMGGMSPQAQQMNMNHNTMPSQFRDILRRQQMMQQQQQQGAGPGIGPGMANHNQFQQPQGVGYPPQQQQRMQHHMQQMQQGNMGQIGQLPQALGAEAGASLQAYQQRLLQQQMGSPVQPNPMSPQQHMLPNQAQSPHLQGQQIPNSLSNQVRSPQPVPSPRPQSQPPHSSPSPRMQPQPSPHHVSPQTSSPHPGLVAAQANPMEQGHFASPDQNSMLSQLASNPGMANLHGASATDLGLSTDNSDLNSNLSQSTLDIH
Sequence of Histone deacetylase 2 (Q92769 whole entry): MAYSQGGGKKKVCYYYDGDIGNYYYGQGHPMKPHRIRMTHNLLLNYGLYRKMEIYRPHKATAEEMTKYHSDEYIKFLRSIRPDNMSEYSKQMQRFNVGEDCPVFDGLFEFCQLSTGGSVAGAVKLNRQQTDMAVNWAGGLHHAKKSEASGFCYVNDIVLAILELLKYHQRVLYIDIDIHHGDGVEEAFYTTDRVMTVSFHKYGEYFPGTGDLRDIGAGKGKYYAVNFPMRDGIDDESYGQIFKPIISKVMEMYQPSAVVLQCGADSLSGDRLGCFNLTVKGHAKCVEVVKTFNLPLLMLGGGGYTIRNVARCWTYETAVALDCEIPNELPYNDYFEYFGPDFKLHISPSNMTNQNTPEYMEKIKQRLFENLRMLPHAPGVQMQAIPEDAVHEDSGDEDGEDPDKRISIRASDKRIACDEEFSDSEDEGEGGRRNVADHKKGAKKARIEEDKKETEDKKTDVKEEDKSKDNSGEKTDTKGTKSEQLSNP
Sequence of Histone deacetylase 3 (O15379 whole entry): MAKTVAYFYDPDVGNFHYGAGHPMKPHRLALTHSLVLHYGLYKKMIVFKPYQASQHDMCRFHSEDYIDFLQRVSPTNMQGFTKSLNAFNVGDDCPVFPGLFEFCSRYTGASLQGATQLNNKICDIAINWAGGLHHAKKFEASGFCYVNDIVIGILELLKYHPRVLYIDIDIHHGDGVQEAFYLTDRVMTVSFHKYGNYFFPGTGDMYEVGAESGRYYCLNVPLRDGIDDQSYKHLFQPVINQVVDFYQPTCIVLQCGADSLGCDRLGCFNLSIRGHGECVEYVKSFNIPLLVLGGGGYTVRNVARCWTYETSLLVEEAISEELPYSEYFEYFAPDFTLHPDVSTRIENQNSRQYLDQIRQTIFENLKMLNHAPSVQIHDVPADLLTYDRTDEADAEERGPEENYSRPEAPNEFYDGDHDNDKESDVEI
Sequence of Histone deacetylase 1 (Q13547 whole entry): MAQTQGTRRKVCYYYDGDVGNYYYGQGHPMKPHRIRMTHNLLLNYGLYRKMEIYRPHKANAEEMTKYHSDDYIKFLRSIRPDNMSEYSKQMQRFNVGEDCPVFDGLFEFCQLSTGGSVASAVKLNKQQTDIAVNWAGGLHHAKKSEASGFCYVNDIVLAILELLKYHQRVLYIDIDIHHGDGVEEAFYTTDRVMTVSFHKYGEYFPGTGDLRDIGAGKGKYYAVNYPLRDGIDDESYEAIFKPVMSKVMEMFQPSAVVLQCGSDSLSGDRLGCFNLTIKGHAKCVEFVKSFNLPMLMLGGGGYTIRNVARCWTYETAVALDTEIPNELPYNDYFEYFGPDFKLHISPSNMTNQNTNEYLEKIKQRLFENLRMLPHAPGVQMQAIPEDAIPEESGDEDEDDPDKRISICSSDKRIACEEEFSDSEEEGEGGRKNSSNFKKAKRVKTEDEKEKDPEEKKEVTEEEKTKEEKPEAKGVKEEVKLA

## CC1=NN(c2ccc(C(=O)O)cc2)C(=O)/C1=C\c1cnc(-c2cc(C)c(C)cc2[N+](=O)[O-])s1
[1]
  IC50: 860 nM

## CC1=NN(c2ccc(C(=O)O)cc2)C(=O)/C1=C\c1ccc(-c2cc(C)c(C)cc2[N+](=O)[O-])[nH]1
[1]
  IC50: 1950 nM

## Cc1cc(-c2ccc(/C=C3\C(=O)N(c4ccc(C(=O)O)cc4)N=C3C3CC3)s2)c(C(F)(F)F)cc1C
[2]
  Activity: Not Active
[3]
  Activity: Active
[4]
  IC50: 22.5 µM
[1]
  IC50: 160 nM
[5]
  IC50: > 100 µM
[6]
  IC50: 5.08 µM
[7]
  inhibition: Active
[8]
  Activity: Not Active
[9]
  IC50: > 100 µM
[10]
  IC50: > 100 µM
[11]
  IC50: > 100 µM
[12]
  IC50: 25.1 µM
[13]
  Activity: Active

## CC1=NN(c2ccc(C(=O)O)cc2)C(=O)/C1=C\c1ccc(-c2ccccc2C(F)F)o1
[1]
  IC50: 1170 nM

## CC1=NN(c2ccc(C(=O)O)cc2)C(=O)/C1=C\c1ccc(-c2ccccc2P(C)(C)=O)o1
[1]
  IC50: > 10000 nM

## CC1=NN(c2ccc(C(=O)O)cc2)C(=O)/C1=C\c1ccc(-c2ccccc2[N+](=O)[O-])o1
[1]
  IC50: 560 nM

## CC1=NN(c2ccc(C#N)cc2)C(=O)/C1=C\c1ccc(-c2cc(C)c(C)cc2[N+](=O)[O-])o1
[1]
  IC50: 1530 nM

## CC1=NN(c2cc(F)c(O)c(F)c2)C(=O)/C1=C\c1ccc(-c2cc(C)c(C)cc2[N+](=O)[O-])o1
[1]
  IC50: 4800 nM
[7]
  inhibition: Active
[14]
  solubility: Soluble
[15]
  solubility: Soluble

## CC1=NN(c2ccc(S(C)(=O)=O)cc2)C(=O)/C1=C\c1ccc(-c2cc(C)c(C)cc2[N+](=O)[O-])o1
[1]
  IC50: 4060 nM

## CC1=NN(c2ccc(C(=O)O)cc2)C(=O)/C1=C\c1ccc(-c2cc(C)c(C)cc2C(F)(F)F)o1
[4]
  IC50: 10.9 µM
[1]
  IC50: 290 nM
[6]
  IC50: 6.19 µM
[7]
  inhibition: Active

## Cc1cc(-c2ccc(/C=C(\C#N)C(=O)Nc3ccc(C(=O)O)cc3)o2)c([N+](=O)[O-])cc1C
[1]
  IC50: 7130 nM

## CC1=NN(c2cc(F)c(O)c(F)c2)C(=O)/C1=C\c1ccc(-c2cc(C)c(C)cc2C(F)(F)F)o1
[1]
  IC50: 7310 nM
[7]
  inhibition: Active
[14]
  solubility: Soluble
[15]
  solubility: Soluble

## CC1=NN(c2cc(F)c(O)c(F)c2)C(=O)/C1=C\c1ccc(-c2ccccc2C(F)F)o1
[1]
  IC50: 6050 nM
[7]
  inhibition: Active
[14]
  solubility: Soluble
[15]
  solubility: Soluble

## CC1=NN(c2ccc(C(=O)O)cc2)C(=O)/C1=C\c1ccc(-c2cc(C)c(C)cc2[N+](=O)[O-])o1
[16]
  Activity: Active
[4]
  IC50: 26.1 µM
[6]
  IC50: 7.8 µM
[17]
  Activity: Active

## CC1=NN(c2cc(F)c(O)c(F)c2)C(=O)/C1=C\c1ccc(-c2cccc3c2C(=O)CC3)o1
[1]
  IC50: 3730 nM
[7]
  inhibition: Active
[14]
  solubility: Soluble
[15]
  solubility: Soluble

## CC1=NN(c2ccc(C(=O)O)cc2)C(=O)C1CCC(=O)Nc1cc(C)c(C)cc1[N+](=O)[O-] (stereo not given)
[1]
  IC50: > 10000 nM

## CCC1=NN(c2ccc(C(=O)O)cc2)C(=O)/C1=C\c1ccc(-c2cc(C)c(C)cc2[N+](=O)[O-])o1
[1]
  IC50: 190 nM

## Cc1cc(-c2ccc(/C=C3/NC(=O)N(c4ccc(C(=O)O)cc4)C3=O)o2)c([N+](=O)[O-])cc1C
[1]
  IC50: > 10000 nM

## CC1=NN(c2ccc(C(=O)O)cc2)C(=O)/C1=C\c1ccc(-c2ccccc2OC(F)(F)F)o1
[4]
  IC50: 23.9 µM
[1]
  IC50: 1130 nM
[6]
  IC50: 7.67 µM
[7]
  inhibition: Active

## Cc1cc(Cc2ccc3c(cnn3-c3ccc(C(=O)O)cc3)c2)c([N+](=O)[O-])cc1C
[1]
  IC50: > 10000 nM

## Cc1cc(-c2ccc(/C=C3\C(=O)N(c4ccc(C(=O)O)cc4)N=C3C3CC3)o2)c([N+](=O)[O-])cc1C
[1]
  IC50: 200 nM

## Cc1cc(-c2ccc(/C=C3/SC(=O)N(c4ccc(C(=O)O)cc4)C3=O)o2)c([N+](=O)[O-])cc1C
[1]
  IC50: > 10000 nM

## CC1=NN(c2ccc(-c3nn[nH]n3)cc2)C(=O)/C1=C\c1ccc(-c2cc(C)c(C)cc2[N+](=O)[O-])o1
[1]
  IC50: 670 nM

## Cc1cc(C(=O)c2ccc3c(cnn3-c3ccc(C(=O)O)cc3)c2)c([N+](=O)[O-])cc1C
[1]
  IC50: > 10000 nM

## CC1=NN(c2ccc(P(=O)(O)O)cc2)C(=O)/C1=C\c1ccc(-c2cc(C)c(C)cc2[N+](=O)[O-])o1
[1]
  IC50: 470 nM

## CC1=NN(c2ccc(C(=O)O)cc2)C(=O)/C1=C(/C)c1ccc(-c2cc(C)c(C)cc2[N+](=O)[O-])o1
[1]
  IC50: 2070 nM

## Cc1cc(C(=O)c2ccc3c(ccn3-c3ccc(C(=O)O)cc3)c2)c([N+](=O)[O-])cc1C
[1]
  IC50: > 10000 nM

## CC1=NN(c2ccc(C(=O)O)cc2)C(=O)/C1=C\c1ccc(-c2cc(C)c(C)cc2[N+](=O)[O-])s1
[4]
  IC50: 27.3 µM
[1]
  IC50: 230 nM
[6]
  IC50: 8.92 µM
[7]
  inhibition: Active

## CC1=NN(c2ccc(C(=O)O)cc2)C(=O)C1CC(=O)Nc1cc(C)c(C)cc1[N+](=O)[O-] (stereo not given)
[1]
  IC50: 9610 nM

## CC1=NN(c2ccc(C(=O)O)cc2)C(=O)/C1=C\c1ccc(-c2cccc3c2C(=O)CC3)o1
[4]
  IC50: 26.8 µM
[1]
  IC50: 580 nM
[6]
  IC50: 10 µM
[7]
  inhibition: Active

## CC1=NN(c2cc(F)c(O)c(F)c2)C(=O)/C1=C\c1ccc(-c2ccccc2OC(F)(F)F)o1
[1]
  IC50: > 10000 nM
